Laboratory results reported in patent US7118895B2, “Process for producing aglycon by using diglycosidase and flavor-improved food containing the aglycon and converting agent to be used in the process” (Amano Enzyme Inc., priority 2000, dated 2006).

Experiments:
[1] = test system: β-Glucosidase derived from A. niger; experiment: Reactivity toward various isoflavone glycosides (HPLC); assay type: biochemical, Aspergillus niger; set-up: glucoside / aglycon: unit not given here; details: 55 °C, pH 4.0
Method: Diglycosidase was diluted with an acetate buffer of pH 4.0 to prepare a 0.75 AU/mL enzyme solution. As references, a similar operation was conducted using β-glucosidase (manufactured by Fluka) derived from Aspergillus niger, β-glucosidase (manufactured by Sigma) derived from almond, β-xylosidase derived from pectinase G (manufactured by Amano Enzyme Inc.). Each of purified products of isoflavone glycosides (glycitin, acetylglycitin, malonylglycitin, daidzin, acetyldaidzin, malonyldaidzin, genistin, acetylgenistin, malonylgenistin, all manufactured by Nacalai Tesque, Inc.) was dissolved in methanol to prepare each 2 mM substrate solution. The reaction was carried out by mixing 10 μL of a substrate solution, 200 μL of 20 mM acetate buffer (pH 4.0), and 40 μL of each purified enzyme solution at a total liquid volume of 250 μL. The reaction was carried out at 55° C. and isolation of an aglycon isoflavone from an isoflavone glycoside in the reaction mixture was detected by HLPC at 0, 1, 3, and 6 hours of the reaction.
To the reaction mixture was added 700 μL of ethanol, followed by stirring and ultrasonication. After centrifugation at 15,000 rpm and 4° C. for 10 minutes, the supernatant was filtered through a filter and then the filtrate was applied to HPLC.
The isoflavone glycoside and aglycon isoflavone contained in the filtrate was separated and detected by a high performance liquid chromatography (HPLC, Shimadzu CLASS LC-10 system) using TOSOH TSK gel ODS-80TM column (manufactured by Tosoh Corporation). […] The absorbance at 260 nm was detected by a UV detector (Shimadzu, SPD-10AV). Using purified products (manufactured by Nacalai Tesque, Inc.) of the above isoflavone glycosides and aglycon isoflavones, the isoflavone glycoside and aglycon isoflavone were quantitatively determined according to a calibration curve method. By the way, unless otherwise stated, the measuring conditions of HPLC herein mean those described in the example.

Crude diglycosidase = experiment: Examination of substrate concentration in the conversion into isoflavone aglycons by diglycosidase using soybean materials; assay type: biochemical, Penicillium multicolor IAM7153; details: for Decomposition efficiency: ratio of each glycoside/aglycon within its isoflavone family: roasted soy flour;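 as to Decomposition efficiency: ratio of each glycoside/aglycon within its isoflavone family: percent of the isoflavone family total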
Summary of the method: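 Soybean materials (roasted soy flour, soymilk, defatted soybean, concentrated soy protein) at 2–30% (w/v) in 20 mM acetate pH 4.0 were reacted with crude diglycosidase at 55° C with shaking; enzyme solution added was 1.88 AU/mL. Samples taken at 0, 1, 3 and 6 h were ethanol-extracted and analyzed by HPLC.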

[2] = substrate concentration 2%, heat treatment of enzyme no, reaction time 0 h
[3] = substrate concentration 2%, heat treatment of enzyme no, reaction time 1 h
[4] = substrate concentration 2%, heat treatment of enzyme no, reaction time 3 h
[5] = substrate concentration 2%, heat treatment of enzyme no, reaction time 6 h
[6] = substrate concentration 2%, heat treatment of enzyme yes, reaction time 6 h
[7] = substrate concentration 5%, heat treatment of enzyme no, reaction time 0 h
[8] = substrate concentration 5%, heat treatment of enzyme no, reaction time 1 h
[9] = substrate concentration 5%, heat treatment of enzyme no, reaction time 3 h
[10] = substrate concentration 5%, heat treatment of enzyme no, reaction time 6 h
[11] = substrate concentration 5%, heat treatment of enzyme yes, reaction time 6 h
[12] = substrate concentration 10%, heat treatment of enzyme no, reaction time 0 h
[13] = substrate concentration 10%, heat treatment of enzyme no, reaction time 1 h
[14] = substrate concentration 10%, heat treatment of enzyme no, reaction time 3 h
[15] = substrate concentration 10%, heat treatment of enzyme no, reaction time 6 h
[16] = substrate concentration 10%, heat treatment of enzyme yes, reaction time 6 h

`CC(=O)OC[C@H]1O[C@@H](Oc2ccc3c(=O)c(-c4ccc(O)cc4)coc3c2)[C@H](O)[C@@H](O)[C@@H]1O` [acetyldaidzin, 6″-O-acetyldaidzin] gave an aglycon ([1]; Reaction time 0 h) of 0, a glucoside ([1]; Reaction time 0 h) of 100 and an aglycon ([1]; Reaction time 1 h) of 4.4. For the same compound, the glucoside ([1]; Reaction time 1 h) was 95.6, the aglycon ([1]; Reaction time 3 h) was 6.4 and the glucoside ([1]; Reaction time 3 h) was 93.6. The aglycon ([1]; Reaction time 6 h) was 9, the glucoside ([1]; Reaction time 6 h) was 91 and the “Decomposition efficiency: ratio of each glycoside/aglycon within its isoflavone family” value (Crude diglycosidase; [2]) was 47.6%. For the same compound, the “Decomposition efficiency: ratio of each glycoside/aglycon within its isoflavone family” value (Crude diglycosidase; [3]) was 9.2%, the “Decomposition efficiency: ratio of each glycoside/aglycon within its isoflavone family” value (Crude diglycosidase; [4]) was “not detected” and the “Decomposition efficiency: ratio of each glycoside/aglycon within its isoflavone family” value (Crude diglycosidase; [5]) was “not detected”. The “Decomposition efficiency: ratio of each glycoside/aglycon within its isoflavone family” value (Crude diglycosidase; [6]) was 47.2%, the “Decomposition efficiency: ratio of each glycoside/aglycon within its isoflavone family” value (Crude diglycosidase; [7]) was 46.1% and the “Decomposition efficiency: ratio of each glycoside/aglycon within its isoflavone family” value (Crude diglycosidase; [8]) was 20.9%. The “Decomposition efficiency: ratio of each glycoside/aglycon within its isoflavone family” value (Crude diglycosidase; [9]) was 12.5%, the “Decomposition efficiency: ratio of each glycoside/aglycon within its isoflavone family” value (Crude diglycosidase; [10]) was 6.8% and the “Decomposition efficiency: ratio of each glycoside/aglycon within its isoflavone family” value (Crude diglycosidase; [11]) was 46.1%. For the same compound, the “Decomposition efficiency: ratio of each glycoside/aglycon within its isoflavone family” value (Crude diglycosidase; [12]) was 38.5%, the “Decomposition efficiency: ratio of each glycoside/aglycon within its isoflavone family” value (Crude diglycosidase; [13]) was 30.5% and the “Decomposition efficiency: ratio of each glycoside/aglycon within its isoflavone family” value (Crude diglycosidase; [14]) was 21.5%. The “Decomposition efficiency: ratio of each glycoside/aglycon within its isoflavone family” value (Crude diglycosidase; [15]) was 14.9%, the “Decomposition efficiency: ratio of each glycoside/aglycon within its isoflavone family” value (Crude diglycosidase; [16]) was 47.7% and the “Decomposition efficiency: ratio of each glycoside/aglycon within its isoflavone family” value (Crude diglycosidase; substrate concentration 20%, heat treatment of enzyme no, reaction time 0 h) was 46.1%. The “Decomposition efficiency: ratio of each glycoside/aglycon within its isoflavone family” value (Crude diglycosidase; substrate concentration 20%, heat treatment of enzyme no, reaction time 1 h) was 40.7%, the “Decomposition efficiency: ratio of each glycoside/aglycon within its isoflavone family” value (Crude diglycosidase; substrate concentration 20%, heat treatment of enzyme no, reaction time 3 h) was 32.6% and the “Decomposition efficiency: ratio of each glycoside/aglycon within its isoflavone family” value (Crude diglycosidase; substrate concentration 20%, heat treatment of enzyme no, reaction time 6 h) was 25.1%. For the same compound, the “Decomposition efficiency: ratio of each glycoside/aglycon within its isoflavone family” value (Crude diglycosidase; substrate concentration 20%, heat treatment of enzyme yes, reaction time 6 h) was 47.2%, the “Decomposition efficiency: ratio of each glycoside/aglycon within its isoflavone family” value (Crude diglycosidase; substrate concentration 30%, heat treatment of enzyme no, reaction time 0 h) was 47.6% and the “Decomposition efficiency: ratio of each glycoside/aglycon within its isoflavone family” value (Crude diglycosidase; substrate concentration 30%, heat treatment of enzyme no, reaction time 1 h) was 46.4%. The “Decomposition efficiency: ratio of each glycoside/aglycon within its isoflavone family” value (Crude diglycosidase; substrate concentration 30%, heat treatment of enzyme no, reaction time 3 h) was 42.6%, the “Decomposition efficiency: ratio of each glycoside/aglycon within its isoflavone family” value (Crude diglycosidase; substrate concentration 30%, heat treatment of enzyme no, reaction time 6 h) was 34.3% and the “Decomposition efficiency: ratio of each glycoside/aglycon within its isoflavone family” value (Crude diglycosidase; substrate concentration 30%, heat treatment of enzyme yes, reaction time 6 h) was 47.4%. For the same compound, the “Decomposition efficiency of daidzin family in defatted soybean” value (Crude diglycosidase; [2]) was “not detected”, the “Decomposition efficiency of daidzin family in defatted soybean” value (Crude diglycosidase; [3]) was “not detected” and the “Decomposition efficiency of daidzin family in defatted soybean” value (Crude diglycosidase; [4]) was “not detected”. The “Decomposition efficiency of daidzin family in defatted soybean” value (Crude diglycosidase; [5]) was “not detected”, the “Decomposition efficiency of daidzin family in defatted soybean” value (Crude diglycosidase; [6]) was “not detected” and the “Decomposition efficiency of daidzin family in defatted soybean” value (Crude diglycosidase; [7]) was “not detected”. The “Decomposition efficiency of daidzin family in defatted soybean” value (Crude diglycosidase; [8]) was “not detected”, the “Decomposition efficiency of daidzin family in defatted soybean” value (Crude diglycosidase; [9]) was “not detected” and the “Decomposition efficiency of daidzin family in defatted soybean” value (Crude diglycosidase; [10]) was “not detected”. For the same compound, the “Decomposition efficiency of daidzin family in defatted soybean” value (Crude diglycosidase; [11]) was “not detected”, the “Decomposition efficiency of daidzin family in defatted soybean” value (Crude diglycosidase; [12]) was “not detected” and the “Decomposition efficiency of daidzin family in defatted soybean” value (Crude diglycosidase; [13]) was “not detected”. The “Decomposition efficiency of daidzin family in defatted soybean” value (Crude diglycosidase; [14]) was “not detected”, the “Decomposition efficiency of daidzin family in defatted soybean” value (Crude diglycosidase; [15]) was “not detected” and the “Decomposition efficiency of daidzin family in defatted soybean” value (Crude diglycosidase; [16]) was “not detected”.
